# Measurements reported in publication PMC6222853 (Molecules : A Journal of Synthetic Chemistry and Natural …, 2018).
# Tests used:
# [1] = test system: LPS-stimulated RAW 264.7 cells; assay: Nitrite inhibition assay in LPS-stimulated cells; type: cell-based; conditions: Mus musculus; for IC50: RAW264.7, 24 h, read-out: Nitrite Inhibition (IC50 Value)
# Description: As an indicator of NO synthesis, nitrite amount was measured in the supernatant of LPS-stimulated RAW 264.7 cells. Cells were plated on a 24-well plate with a density of 2 × 10^5 cells/well. After seeding, cells were treated with LPS (500 ng/mL final concentration) and varying concentrations of the test compounds for 24 h. Ketorolac (200 μM) was used as a standard drug. Then, 100 μL of culture supernatant from each well was mixed with an equal volume of Griess reagent, and incubated at room temperature for 10 min. The formation of an azo compound was measured spectrophotometrically at 550 nm wavelength. Finally, nitrite concentration was determined from a standard curve of sodium nitrite, and nitrite inhibition percentages of test compounds and the reference drug were calculated based on the amount of nitrite produced by the control cells (treated only with LPS).
# electric eel AChE = target: T1, electric eel AChE (Electrophorus electricus, UniProt O42275); assay: biochemical; conditions: in vitro, electric eel enzyme; read-out: AChE inhibition IC50
# T1 construct: purchased Sigma-Aldrich (Saint Louis, MO, USA)
# T1 sequence (O42275 24-633): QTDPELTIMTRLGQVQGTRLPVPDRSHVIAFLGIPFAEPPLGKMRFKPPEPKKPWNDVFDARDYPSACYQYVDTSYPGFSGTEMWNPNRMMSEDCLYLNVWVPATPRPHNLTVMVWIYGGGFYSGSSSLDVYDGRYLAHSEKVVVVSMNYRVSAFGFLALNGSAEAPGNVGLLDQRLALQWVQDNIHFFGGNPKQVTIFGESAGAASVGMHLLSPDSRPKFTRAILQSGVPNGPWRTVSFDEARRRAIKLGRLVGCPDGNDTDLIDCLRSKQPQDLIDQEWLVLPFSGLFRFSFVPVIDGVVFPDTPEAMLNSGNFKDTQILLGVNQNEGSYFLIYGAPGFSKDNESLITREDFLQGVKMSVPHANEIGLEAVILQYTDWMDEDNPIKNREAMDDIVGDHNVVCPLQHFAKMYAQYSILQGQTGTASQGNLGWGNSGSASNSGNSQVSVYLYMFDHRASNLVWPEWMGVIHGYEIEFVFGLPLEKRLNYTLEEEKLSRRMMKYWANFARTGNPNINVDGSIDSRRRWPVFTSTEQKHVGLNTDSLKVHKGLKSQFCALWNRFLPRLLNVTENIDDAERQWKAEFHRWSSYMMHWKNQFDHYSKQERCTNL
# Description: The AChE inhibitory properties of the compounds were determined using a 96-well microplate colorimetric method as described by Ellman et al.. Donepezil was used as a positive control.
# COX-2 = target: T2, COX-2 (Mus musculus, UniProt Q05769); assay: Cell-based assay for COX-2 inhibition (PGE2 ELISA); conditions: LPS-induced RAW 264.7 cells, conversion of arachidonic acid to PGE2
# T2 construct: treated with 500 ng/mL LPS for the next 24 h to induce the production of COX-2; endogenous in cells; host or cells: RAW 264.7 cells, LPS-induced
# T2 sequence (Q05769 18-604): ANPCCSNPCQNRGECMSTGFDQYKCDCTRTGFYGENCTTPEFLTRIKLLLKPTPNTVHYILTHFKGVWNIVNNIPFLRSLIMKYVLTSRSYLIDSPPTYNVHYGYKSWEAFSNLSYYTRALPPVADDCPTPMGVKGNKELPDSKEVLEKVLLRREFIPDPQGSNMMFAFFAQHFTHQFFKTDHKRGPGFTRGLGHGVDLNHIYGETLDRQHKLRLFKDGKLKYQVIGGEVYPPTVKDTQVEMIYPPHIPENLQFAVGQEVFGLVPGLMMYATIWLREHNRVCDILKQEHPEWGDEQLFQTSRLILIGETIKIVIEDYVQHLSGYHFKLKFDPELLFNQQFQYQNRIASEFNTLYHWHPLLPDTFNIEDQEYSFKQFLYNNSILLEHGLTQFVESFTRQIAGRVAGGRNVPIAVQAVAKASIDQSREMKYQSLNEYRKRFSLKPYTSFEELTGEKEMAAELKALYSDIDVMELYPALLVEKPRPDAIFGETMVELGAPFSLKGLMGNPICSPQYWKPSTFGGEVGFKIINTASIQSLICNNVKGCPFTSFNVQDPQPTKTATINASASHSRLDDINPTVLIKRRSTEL
# Description: This assay was carried out according to the method described by Stanikunaite et al. with some modifications. In brief, RAW 264.7 cells (2 × 10^5 cells/well) were cultured in a 24-well plate in DMEM supplemented with 10% FBS and incubated at 37 °C for 24 h for seeding. After seeding, cells were washed with PBS (400 µL) and treated with 500 ng/mL LPS for the next 24 h to induce the production of COX-2. Then, the induced cells were washed thoroughly with PBS to remove LPS completely and treated with different concentrations of test compounds for 4 h. Arachidonic acid (300 µM) was added and the cells were further incubated for 30 min. Next, the PGE2 levels were determined in the culture supernatant using a PGE2 ELISA kit (Cayman Chemical Co., Ann Arbor, MI, USA) according to the manufacturer’s instructions. COX-2 enzyme activity was determined by the conversion of exogenous arachidonic acid to PGE2, and was expressed as the percentage of negative control (without test compounds). Finally, IC50 values were calculated for all the tested compounds. Indomethacin was used as a positive control.
# egg albumin = target: T3, egg albumin (Gallus gallus, UniProt P01012); assay: Albumin denaturation inhibition assay; set-up: species or system chicken; conditions: for IC50: egg albumin, heated at 70 °C, in vitro
# T3 sequence (P01012 1-386): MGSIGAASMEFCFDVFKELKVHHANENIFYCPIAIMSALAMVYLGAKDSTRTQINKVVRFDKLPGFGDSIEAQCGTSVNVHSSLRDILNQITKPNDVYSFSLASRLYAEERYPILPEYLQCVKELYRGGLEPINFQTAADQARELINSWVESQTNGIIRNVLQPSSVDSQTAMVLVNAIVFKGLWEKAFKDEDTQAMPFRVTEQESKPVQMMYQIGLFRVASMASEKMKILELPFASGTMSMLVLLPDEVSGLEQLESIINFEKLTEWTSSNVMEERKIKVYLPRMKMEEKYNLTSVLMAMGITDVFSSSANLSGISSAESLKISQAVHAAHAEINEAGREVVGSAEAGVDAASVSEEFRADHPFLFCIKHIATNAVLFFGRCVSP
# Description: Albumin denaturation inhibition effects of the compounds were confirmed through a previously described method. Egg albumin was used in this experiment, and the reaction mixture contained 0.1 mL of egg albumin, 0.7 mL of phosphate-buffered saline (PBS), and varying concentrations of different compounds (0.5 mL). Mili-Q water (0.5 mL) instead of the compounds was used in the negative control. The reaction mixtures were incubated at 37 °C for 15 min and heated at 70 °C for 5 min. The absorbance was measured at 660 nm after cooling at room temperature. Ketorolac was used as a standard drug. Percentage of albumin denaturation inhibition was calculated according to the following formula:Percentage of inhibition = (1 − (A/B)) × 100, where A is the absorbance of the test sample, and B is the absorbance of the negative control.
# yeast α-glucosidase = target: T4, yeast α-glucosidase (Saccharomyces cerevisiae, UniProt P53341); assay: α-Glucosidase inhibition assay; type: biochemical
# T4 construct: purchased Sigma-Aldrich (Saint Louis, MO, USA)
# T4 sequence (P53341 whole entry): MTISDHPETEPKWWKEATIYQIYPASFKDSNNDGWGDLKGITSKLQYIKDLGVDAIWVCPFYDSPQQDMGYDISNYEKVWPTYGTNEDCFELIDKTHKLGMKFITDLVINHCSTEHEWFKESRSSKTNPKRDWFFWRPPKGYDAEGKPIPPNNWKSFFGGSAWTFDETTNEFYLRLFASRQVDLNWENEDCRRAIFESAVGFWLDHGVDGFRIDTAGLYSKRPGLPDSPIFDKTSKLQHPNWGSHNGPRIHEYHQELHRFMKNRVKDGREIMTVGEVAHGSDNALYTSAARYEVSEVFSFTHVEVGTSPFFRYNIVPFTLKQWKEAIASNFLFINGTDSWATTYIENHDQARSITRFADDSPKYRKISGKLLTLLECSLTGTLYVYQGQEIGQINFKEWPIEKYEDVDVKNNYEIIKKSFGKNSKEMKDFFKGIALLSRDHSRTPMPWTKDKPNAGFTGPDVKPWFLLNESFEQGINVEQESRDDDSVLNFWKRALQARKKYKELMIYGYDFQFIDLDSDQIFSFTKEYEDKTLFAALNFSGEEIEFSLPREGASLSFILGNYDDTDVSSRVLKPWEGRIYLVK
# Description: The α-glucosidase assay was performed with slight modifications of a previous method. In short, 15 µL of the test sample at various concentrations was added to 140 µL of enzyme solution (0.0073 U/mL of α-glucosidase in 0.05 M sodium phosphate buffer containing 100 mM NaCl) in a 96-well plate. Reaction mixtures were incubated at 37 °C for 15 min. Then, 25 µL of 0.7 mM p-nitrophenyl-α-D-glucopyranoside (PNPG) solution in 0.05 M sodium phosphate buffer (pH 6.8) was added to each well.
# RAW 264.7 cells = assay: cells; type: cell-based; conditions: Mus musculus, RAW264.7, 24 h, read-out: Inhibition of cell proliferation, deviation from the control group
# Description: RAW 264.7 cell viability was evaluated through the MTT assay. Cells were seeded in a 24-well plate at a density of 2 × 10^5 cells/well and incubated with the OP compounds for 24 h. Ketroloac (200 μM) was also assessed to determine its cytotoxicity on RAW 264.7 cells. After incubation, the supernatant was removed, and the cells were washed with PBS. Aliquots of 100 μL of MTT solution (0.5 mg/mL in PBS) were added to each well, and the plate was incubated at 37 °C for 3 h. Afterwards, dimethyl sulfoxide (400 μL) was added to each well, and the plate was shaken for 10 min at room temperature to dissolve the formazan crystals. The absorbance was measured at 570 nm wavelength using a microplate reader, and the cell viability was calculated from the absorbance of the treated versus untreated control cells.
compound,measurement,setting,value
"CC(C)=CCC/C(C)=C/Cc1cc([C@@H]2CC(=O)c3c(O)cc(O)cc3O2)ccc1O [GN, 3′-geranyl-naringenin]",IC50,[1],7 µM
same,IC50,electric eel AChE,12.3 µM
same,IC50,COX-2,24 µM
same,IC50,egg albumin,1.02 µM
same,IC50,yeast α-glucosidase,5.4 µM
"CC(C)=CCC/C(C)=C/Cc1cc(C2CC(=O)c3c(O)cc(O)cc3O2)cc(O)c1O (centres unmarked) [INB, isonymphaeol-B]",IC50,[1],6.2 µM
same,IC50,electric eel AChE,7.23 µM
same,IC50,COX-2,23.8 µM
same,inhibition at 12 µM,RAW 264.7 cells,3 to 5%
same,IC50,egg albumin,0.42 µM
same,IC50,yeast α-glucosidase,5.12 µM
"CC(C)=CCC/C(C)=C/Cc1c(O)cc2c(c1O)C(=O)C[C@@H](c1ccc(O)c(O)c1)O2 [NA, nymphaeol-A]",IC50,[1],3.2 µM
same,IC50,electric eel AChE,7.77 µM
same,IC50,COX-2,11.7 µM
same,IC50,egg albumin,0.26 µM
same,IC50,yeast α-glucosidase,3.77 µM
"CC(C)=CCC/C(C)=C/Cc1c([C@@H]2CC(=O)c3c(O)cc(O)cc3O2)ccc(O)c1O [NB, nymphaeol-B]",IC50,[1],5.4 µM
same,IC50,electric eel AChE,15.1 µM
same,IC50,COX-2,17.9 µM
same,inhibition at 12 µM,RAW 264.7 cells,3 to 5%
same,IC50,egg albumin,0.54 µM
same,IC50,yeast α-glucosidase,5.66 µM
"CC(C)=CCC/C(C)=C/Cc1c([C@@H]2CC(=O)c3c(cc(O)c(CC=C(C)C)c3O)O2)ccc(O)c1O [NC, nymphaeol-C]",IC50,[1],2.4 µM
same,IC50,electric eel AChE,15.7 µM
same,IC50,COX-2,15.4 µM
same,IC50,egg albumin,0.37 µM
same,IC50,yeast α-glucosidase,4.09 µM
"O=C(c1ccccc1)c1ccc2n1CCC2C(=O)O (centres unmarked) [ketorolac, reference compound]",inhibition at 200 µM,"[1]; RAW264.7, 200 μM, compared to cells treated only with LPS, read-out: Inhibition of nitrite formation in the supernatant",26%
same,inhibition at 200 µM,egg albumin; at 200 µM,52%
